Results as given in patent US5661130A, “Absorption enhancers for drug administration” (The UAB Research Foundation, priority 1993, dated 1997).

Key:
rats = assay: Hyperglycemic effect of glucagon eye drops with surfactant; type: in vivo, rat; settings: for blood D-glucose values after glucagon eye drops (in words): surfactant plus glucagon, rats previously treated with eye drops of same surfactant plus insulin; for Blood Glucose Concentration: glucagon eye drops with 0.5% surfactant agent added after 120 min (after insulin eye drops)
Experimental: Glucagon absorption from the eye was measured in rats given eye drops containing various surfactants plus glucagon (30 μg) (Eli Lilly, Indianapolis, Ind.) by monitoring an elevation in blood D-glucose levels. […] Once again, paired animals that received eye drops containing the surfactant agents only, or glucagon only, could be compared to animals receiving eye drops with surfactant agents and glucagon. […] Additionally, the use of glucagon eyedrops to treat a hypoglycemic crisis is now possible provided that an appropriate surfactant agent is included in the eye drop formulation.

[1] = test system: normal rats with blood glucose elevated by xylazine/ketamine anesthesia; assay: Hypoglycemic effect of insulin eye drops with absorption enhancer in anesthetized rats; type: in vivo, rat
Experimental: This mimics the hyperglycemic state seen in diabetic animals and humans. The elevated levels of D-glucose that occur in response to anesthesia provide an optimal system in which to measure any systemic hypoglycemic action of insulin-containing eye drops.
Adult male Sprague-Dawley rats (250-350g) were fed ad libitum, and experiments were conducted between 10:00 a.m. and 3:00 p.m. Rats were anesthetized with a mixture of xylazine (7.5 mg/kg) and ketamine (50 mg/kg) given intraperitoneally (IP) and allowed to stabilize for 50-90 min before the administration of eye drops. […] Blood D-glucose values were measured by collecting a drop of blood from the tail vein at 5-10 min intervals throughout the experiment and applying the blood to glucometer strips (Chemstrip bG) according to directions provided with the instrument (Accu-Chek II, Boehringer Mannheim Diagnostics; Indianapolis, Ind.).
(§1) Eye drops were instilled at time 0 using a plastic disposable pipette tip with the eyes held open, and the rat was kept in a horizontal position on a warming pad (37° C.) throughout the protocol. […] Octyl β-D-maltoside, decyl-β-D-maltoside, dodecyl-β-D-maltoside, tridecyl-β-D-maltoside and tetradecyl-β-D-maltoside were obtained from Anatrace, Inc. (Maumee, Ohio).

rectal mucosa of rats = settings: Murakami et al.; cited from earlier work
[2] = test system: intact mouse fibrosarcoma cells; settings: LeGrue et al.; cited from earlier work
[3] = test system: monocytes or endothelial cells; settings: DiCorleto et al.; cited from earlier work
[4] = test system: normal rats with blood glucose elevated by xylazine/ketamine anesthesia; assay: Hypoglycemic effect of insulin nose drop with absorption enhancer; type: in vivo, rat; settings: nose drop 0.2% insulin with 0.5% tetradecylmaltoside, after eye drops
Experimental: Adult male Sprague-Dawley rats (250-350g) were fed ad libitum, and experiments were conducted between 10:00 a.m. and 3:00 p.m. Rats were anesthetized with a mixture of xylazine (7.5 mg/kg) and ketamine (50 mg/kg) given intraperitoneally (IP) and allowed to stabilize for 50-90 min before the administration of eye drops. Anesthesia of a normal rat with xylazine/ketamine produces an elevation in blood glucose values which provides an optimal state to determine the systemic hypoglycemic action of insulin-containing eye drops. Blood D-glucose values were measured by collecting a drop of blood from the tail vein at 5-10 min intervals throughout the experiment and applying the blood to glucometer strips (Chemstrip bG) according to directions provided with the instrument (Accu-Chek II, Boehringer Mannheim Diagnostics; Indianapolis, Ind.). Blood D-glucose values ranged from 200 to 400 mg/dl in anesthetized nondiabetic rats.
as §1, with “Ohio). […]” for “Ohio).”

[5] = 0.5% enhancer with 0.2% regular porcine insulin
[6] = enhancer concentration not singled out (0.125-0.5%), with 0.2% regular porcine insulin
[7] = 0.25% enhancer with 0.2% regular porcine insulin

CCCCCCCCCCO[C@@H]1O[C@H](CO)[C@@H](O[C@H]2O[C@H](CO)[C@@H](O)[C@H](O)[C@H]2O)[C@H](O)[C@H]1O [Decyl Maltoside, decyl-β-D-maltoside]
blood D-glucose values after glucagon eye drops (in words) (rats): significantly increased
Effect as absorption enhancer on blood glucose, insulin eye drops (in words) [1, 5]: prompt and sustained fall in blood glucose levels
Effect as absorption enhancer on blood glucose, insulin eye drops (in words) [1, 6]: less

CCCCCCCCCCCCO[C@@H]1O[C@H](CO)[C@@H](O[C@H]2O[C@H](CO)[C@@H](O)[C@H](O)[C@H]2O)[C@H](O)[C@H]1O [Dodecyl Maltoside, dodecyl-β-D-maltoside]
histological change to the rectal tissue (rectal mucosa of rats): without producing any apparent histological change
promoting absorption of dextrans and carboxyfluoroscein across the rectal mucosa (rectal mucosa of rats): effective
Effect as absorption enhancer on blood glucose, insulin eye drops (in words) ([1]; 0.125% enhancer with 0.2% regular porcine insulin): ineffective
Effect as absorption enhancer on blood glucose, insulin eye drops (in words) [1, 7]: smaller and more transient effect
Effect as absorption enhancer on blood glucose, insulin eye drops (in words) ([1]; 0.375% enhancer with 0.2% regular porcine insulin): equally effective
Effect as absorption enhancer on blood glucose, insulin eye drops (in words) ([1]; 0.5% enhancer with 0.2% regular porcine insulin, listed as dodecyl-β-D-maltoside): prompt and sustained fall in blood glucose levels
Effect as absorption enhancer on blood glucose, insulin eye drops (in words) ([1]; 0.5% enhancer with 0.2% regular porcine insulin, listed as dodecylmaltoside): equally effective

CCCCCCCCO[C@@H]1O[C@H](CO)[C@@H](O)[C@H](O)[C@H]1O [Octylglucoside, octyl β-D-glucoside]
cytolysis of intact mouse fibrosarcoma cells [2]: non-cytolytic
viability or morphology of monocytes or endothelial cells [3]: no effect

CCCCCCCCCCCCCCO[C@@H]1O[C@H](CO)[C@@H](O[C@H]2O[C@H](CO)[C@@H](O)[C@H](O)[C@H]2O)[C@H](O)[C@H]1O [Tetradecyl Maltoside, tetradecyl-β-D-maltoside]
blood glucose levels after nose drop (in words) [4]: further decreased
Effect as absorption enhancer on blood glucose, insulin eye drops (in words) ([1]; 0.125% enhancer with 0.2% regular porcine insulin, listed as tetradecyl maltoside): effective
Effect as absorption enhancer on blood glucose, insulin eye drops (in words) ([1]; 0.125% enhancer with 0.2% regular porcine insulin, listed as tetradecylmaltoside): prompt and prominent drop in blood glucose levels
Effect as absorption enhancer on blood glucose, insulin eye drops (in words) [1, 5]: effective

CCCCCCCCCCCCCOC1OC(CO)C(OC2OC(CO)C(O)C(O)C2O)C(O)C1O [Tridecyl Maltoside, tridecyl-β-D-maltoside]
Blood Glucose Concentration (rats; time 130 min): 82 mg/dL
Blood Glucose Concentration (rats; time 140 min): 121 mg/dL
Blood Glucose Concentration (rats; time 150 min): 148 mg/dL
Blood Glucose Concentration (rats; time 160 min): 173 mg/dL
Blood Glucose Concentration (rats; time 170 min): 162 mg/dL
Blood Glucose Concentration (rats; time 180 min): 162 mg/dL
Blood Glucose Concentration (rats; time 190 min): 156 mg/dL
blood D-glucose values after glucagon eye drops (in words) (rats): significantly increased
Effect as absorption enhancer on blood glucose, insulin eye drops (in words) [1, 7]: sustained for the two hour time course of the experiment
Effect as absorption enhancer on blood glucose, insulin eye drops (in words) [1, 5]: effective
Blood Glucose Concentration ([1]; 0.5% surfactant agent, time -10 min, before insulin eye drops): 307 mg/dL
Blood Glucose Concentration ([1]; 0.5% surfactant agent, time -20 min, before insulin eye drops): 255 mg/dL
Effect as absorption enhancer on blood glucose, insulin eye drops (in words) [1, 6]: dose-dependent effect
Blood Glucose Concentration ([1]; insulin eye drops with 0.5% surfactant agent, time 0 min): 323 mg/dL
Blood Glucose Concentration ([1]; insulin eye drops with 0.5% surfactant agent, time 10 min): 309 mg/dL
Blood Glucose Concentration ([1]; insulin eye drops with 0.5% surfactant agent, time 20 min): 217 mg/dL
Blood Glucose Concentration ([1]; insulin eye drops with 0.5% surfactant agent, time 30 min): 131 mg/dL
Blood Glucose Concentration ([1]; insulin eye drops with 0.5% surfactant agent, time 40 min): 100 mg/dL
Blood Glucose Concentration ([1]; insulin eye drops with 0.5% surfactant agent, time 50 min): 87 mg/dL
Blood Glucose Concentration ([1]; insulin eye drops with 0.5% surfactant agent, time 60 min): 107 mg/dL
Blood Glucose Concentration ([1]; insulin eye drops with 0.5% surfactant agent, time 70 min): 115 mg/dL
Blood Glucose Concentration ([1]; insulin eye drops with 0.5% surfactant agent, time 80 min): 79 mg/dL
Blood Glucose Concentration ([1]; insulin eye drops with 0.5% surfactant agent, time 90 min): 85 mg/dL
Blood Glucose Concentration ([1]; insulin eye drops with 0.5% surfactant agent, time 100 min): 76 mg/dL
Blood Glucose Concentration ([1]; insulin eye drops with 0.5% surfactant agent, time 110 min): 74 mg/dL
Blood Glucose Concentration ([1]; insulin eye drops with 0.5% surfactant agent, time 120 min): 75 mg/dL

CCCCCCCOC1O[C@H](CO)[C@@H](O)[C@H](O)[C@H]1O (stereo partly drawn) [heptylglucoside, heptylglucopyranoside]
Effect as absorption enhancer on blood glucose, insulin eye drops (in words) [1, 5]: ineffective

CCCCCCOC1O[C@H](CO)[C@@H](O)[C@H](O)[C@H]1O (stereo partly drawn) [hexylglucoside, Hexylglucopyranoside]
Effect as absorption enhancer on blood glucose, insulin eye drops (in words) [1, 5]: ineffective

CCCCCCCCCOC1O[C@H](CO)[C@@H](O)[C@H](O)[C@H]1O (stereo partly drawn) [nonylglucoside, nonylglucopyranoside]
Effect as absorption enhancer on blood glucose, insulin eye drops (in words) [1, 5]: effectively stimulated insulin absorption
blood glucose levels ([1]; insulin eye drops with 0.5% nonylglucoside, initial value (from)): 297 mg/dL
blood glucose levels ([1]; insulin eye drops with 0.5% nonylglucoside, reduced value (to)): 150 mg/dL

CCCCCCCCO[C@@H]1O[C@H](CO)[C@@H](O[C@H]2O[C@H](CO)[C@@H](O)[C@H](O)[C@H]2O)[C@H](O)[C@H]1O [octylmaltoside, Octyl β-D-maltoside]
Effect as absorption enhancer on blood glucose, insulin eye drops (in words) [1, 6]: no

decylsucrose
Effect as absorption enhancer on blood glucose, insulin eye drops (in words) [1, 5]: effective in reducing blood glucose levels
blood glucose levels ([1]; insulin eye drops with 0.5% decylsucrose, time 0 min): 313 mg/dL
blood glucose levels ([1]; insulin eye drops with 0.5% decylsucrose, time 120 min): 164 mg/dL

dodecylsucrose [Dodecyl Sucrose]
blood D-glucose values after glucagon eye drops (in words) (rats): significantly increased
blood glucose levels ([1]; insulin eye drops with 0.125% dodecylsucrose, time 0 min): 335 mg/dL
blood glucose levels ([1]; insulin eye drops with 0.125% dodecylsucrose, time 120 min): 150 mg/dL
